In PubChem BioAssay (NCI):
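48-hour exposure; five concentrations; linearly interpolated endpoints. The concentration for full growth arrest is given as TGI.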

Columns and labels:
Test in all cases: NCI tumour cell line growth inhibition, 48 h
[1] = system: RXF 393 renal
[2] = system: OVCAR-4 ovarian
[3] = system: SK-MEL-28 melanoma
[4] = system: HOP-92 NSCLC
[5] = system: HL-60(TB) leukemia
[6] = system: HCC-2998 colon
[7] = system: ACHN renal
[8] = system: MCF7 breast
[9] = system: SN12C renal
[10] = system: OVCAR-3 ovarian
[11] = system: OVCAR-5 ovarian
[12] = system: M14 melanoma
[13] = system: CAKI-1 renal
[14] = system: UACC-257 melanoma
[15] = system: DU-145 prostate
[16] = system: SK-MEL-2 melanoma
[17] = system: UO-31 renal
[18] = system: SR leukemia
[19] = system: MOLT-4 leukemia
[20] = system: MALME-3M melanoma
[21] = system: NCI-H522 lung
[22] = system: EKVX NSCLC
[23] = system: MDA-MB-231 breast
[24] = system: A549 NSCLC
[25] = system: U251 CNS
[26] = system: BT-549 breast
[27] = system: SF-539 CNS
[28] = system: NCI-H460 lung
[29] = system: COLO 205 colon
[30] = system: CCRF-CEM leukemia
[31] = system: SF-268 CNS
[32] = system: SW-620 colon
[33] = system: HT29 colon
[34] = system: UACC-62 melanoma
[35] = system: IGROV1 ovarian
[36] = system: 786-0 renal
[37] = system: RPMI-8226 leukemia
[38] = system: NCI-H23 lung
[39] = system: NCI-H226 lung
[40] = system: A498 renal
[41] = system: HS 578T breast
[42] = system: SK-OV-3 ovarian
[43] = system: SK-MEL-5 melanoma
[44] = system: HOP-62 NSCLC
[45] = system: T-47D breast
[46] = system: SF-295 CNS
[47] = system: KM12 colon
[48] = system: K-562 leukemia
[49] = system: PC-3 prostate
[50] = system: MDA-N
[51] = system: TK-10 renal
[52] = system: HCT-15 colon
[53] = system: HCT-116 colon
[54] = system: LOX IMVI melanoma
[55] = system: MDA-MB-435
[56] = system: SNB-19 CNS
[57] = system: NCI/ADR-RES ovarian
[58] = system: OVCAR-8 ovarian

C=C1C(=O)O[C@@H]2O[C@@]3(C)CC[C@H]4[C@H](C)CC[C@@H]1[C@@]24O3
TGI [1]: 54.7 µM | TGI [2]: 36.3 µM | TGI [3]: > 100 µM | TGI [4]: 12.4 µM | TGI [5]: > 100 µM | TGI [6]: 41 µM | TGI [7]: 26.9 µM | TGI [8]: 25.3 µM | TGI [9]: 59.2 µM | TGI [10]: 93.5 µM | TGI [11]: > 100 µM | TGI [12]: > 100 µM | TGI [13]: 46.4 µM | TGI [14]: 47.9 µM | TGI [15]: 27.5 µM | TGI [16]: 46.9 µM | TGI [17]: 63 µM | TGI [18]: 47 µM | TGI [19]: 38.9 µM | TGI [20]: 86.4 µM | TGI [21]: 62.8 µM | TGI [22]: 48.7 µM | TGI [23]: 81.8 µM | TGI [24]: > 100 µM | TGI [25]: > 100 µM | TGI [26]: 22.2 µM | TGI [27]: 32.2 µM | TGI [28]: 65.9 µM | TGI [29]: 34.3 µM | TGI [30]: 11.8 µM | TGI [31]: > 100 µM | TGI [32]: > 100 µM | TGI [33]: 83.5 µM | TGI [34]: 29.7 µM | TGI [35]: 28.3 µM | TGI [36]: 41.3 µM | TGI [37]: 36.8 µM | TGI [38]: 40.1 µM | TGI [39]: > 100 µM | TGI [40]: > 100 µM | TGI [41]: > 100 µM | TGI [42]: > 100 µM | TGI [43]: > 100 µM | TGI [44]: > 100 µM | TGI [45]: 38.1 µM | TGI [46]: > 100 µM | TGI [47]: 21.3 µM | TGI [48]: > 100 µM | TGI [49]: 52.7 µM | TGI [50]: > 100 µM | TGI [51]: 32.7 µM | TGI [52]: 27.6 µM | TGI [53]: 32.2 µM | TGI [54]: 40.1 µM | TGI [55]: > 100 µM | TGI [56]: > 100 µM

O=C1C=CC(=O)c2c1ccc1c3ccccc3n(CCCCCCCCn3c4ccccc4c4ccc5c(c43)C(=O)C=CC5=O)c21
TGI [1]: > 100 µM | TGI [2]: > 100 µM | TGI [3]: > 100 µM | TGI [5]: > 100 µM | TGI [6]: > 100 µM | TGI [7]: > 100 µM | TGI [8]: > 100 µM | TGI [9]: > 100 µM | TGI [10]: > 100 µM | TGI [11]: > 100 µM | TGI [12]: > 100 µM | TGI [13]: > 100 µM | TGI [14]: > 100 µM | TGI [15]: > 100 µM | TGI [16]: > 100 µM | TGI [19]: > 100 µM | TGI [20]: > 100 µM | TGI [21]: > 100 µM | TGI [22]: > 100 µM | TGI [23]: > 100 µM | TGI [24]: > 100 µM | TGI [25]: > 100 µM | TGI [26]: > 100 µM | TGI [27]: > 100 µM | TGI [28]: > 100 µM | TGI [29]: > 100 µM | TGI [30]: > 100 µM | TGI [31]: > 100 µM | TGI [32]: > 100 µM | TGI [33]: > 100 µM | TGI [34]: > 100 µM | TGI [35]: > 100 µM | TGI [36]: > 100 µM | TGI [57]: > 100 µM | TGI [37]: > 100 µM | TGI [38]: > 100 µM | TGI [39]: > 100 µM | TGI [40]: > 100 µM | TGI [41]: > 100 µM | TGI [42]: > 100 µM | TGI [43]: > 100 µM | TGI [44]: > 100 µM | TGI [45]: > 100 µM | TGI [46]: > 100 µM | TGI [47]: > 100 µM | TGI [48]: > 100 µM | TGI [49]: > 100 µM | TGI [50]: > 100 µM | TGI [51]: > 100 µM | TGI [58]: > 100 µM | TGI [52]: > 100 µM | TGI [53]: > 100 µM | TGI [54]: > 100 µM | TGI [55]: > 100 µM | TGI [56]: > 100 µM
